Like-named read-outs stand apart in the source and are kept apart here. Starred links: 1 amine or outer side, 2 acyl side, 3 side chain; linkers in the order of their positions; H or OH if unused. Positions of bridges follow the written chain, without caps; N, C: chain ends. Non-standard residues stand in square brackets, D forms with d. Residues, ends and D or L forms follow the SMILES beside them. *: point of attachment. NMeF = CN[C@@H](Cc1ccccc1)C(=O)O; NMeI = CC[C@H](C)[C@H](NC)C(=O)O; NMeT = CN[C@H](C(=O)O)[C@@H](C)O; hPhe = N[C@@H](CCc1ccccc1)C(=O)O; NMeβAla = CN(CCC(=O)[*:2])[*:1]; NMeD = CN[C@@H](CC(=O)O)C(=O)O; NMeL = CN[C@@H](CC(C)C)C(=O)O; dNMeV = CN[C@@H](C(=O)O)C(C)C; NMeV = CN[C@H](C(=O)O)C(C)C; NMeA = CN[C@@H](C)C(=O)O; Piperidide = C1CCN(*)CC1; Abu = CC[C@H](N)C(=O)O; NBuGly = CCCCNCC(=O)O; βAla = NCCC(=O)O; Sar = CNCC(=O)O; tBu = CC(C)(C)*
What was measured:
[1] = Metabolic stability test: liver microsomal stability assay; assay type: in vitro ADME, mouse; conditions: for microsomal CLint at 1 µM: male, pH 7.4, presence of NADPH, read-out: Mouse Hepatic Microsome CLh,int NADPH(+)
Caco-2 cells = assay: Membrane permeability test using Caco-2 cells with preincubation; assay type: in vitro ADME
[2] = as above; assay type: in vitro ADME; conditions: Caco-2
[3] = mouse liver microsomes 0.5 mg protein/mL, compound 1 µM
[4] = mouse liver microsomes 0.5 mg protein/mL, compound 1 µM, absence of NADPH
[5] = Caco-2 cells, preincubation 20 to 24 hours, apical FaSSIF/HBSS 1% DMSO pH 6.0, basal HBSS 4% BSA pH 7.4, basal sample at 180 minutes
[6] = preincubation 20 to 24 hours, Apical FaSSIF/HBSS pH 6.0, Basal HBSS 4% BSA pH 7.4, 180 minutes, read-out: Caco2 Papp

microsomal CLint at 1 µM [1, 3]	Mouse Hepatic Microsome CLh,int NADPH(-) [1, 4]	Caco2 Papp (10^-6 cm/sec) (Caco-2 cells; [5])	Papp A→B [2, 6]	Compound	Mouse Hepatic Microsome CLh,int NADPH(-) [1]	Caco2 Papp (10^-6 cm/sec) (Caco-2 cells; Caco-2)	Papp A→B [2]
				CC[C@H](C)[C@H]1C(=O)NCCC(=O)N(C)[C@@H](CC(C)C)C(=O)N[C@H](C(=O)N2CCCCC2)CC(=O)N(C)[C@@H](C)C(=O)N[C@@H](CC(C)C)C(=O)N[C@@H]([C@@H](C)O)C(=O)N(C)[C@@H](Cc2ccccc2)C(=O)NCCC(=O)N(C)[C@@H](C(C)C)C(=O)N[C@@H](CC(C)C)C(=O)N(C)[C@@H]([C@@H](C)CC)C(=O)N[C@@H](CCc2ccccc2)C(=O)N(C)CC(=O)N1C [pd024] ([NMeA]LT[NMeF][βAla][NMeV]L[NMeI][hPhe][Sar][NMeI][βAla][NMeL]D-Piperidide; lactam N-14)	20.0 µL/min/mg Protein	0.30 10^-6 cm/sec	0.3 ×10⁻⁶ cm/s
18.7 µL/min/mg	28.4 µL/min/mg Protein	0.04 10^-6 cm/sec	0.04 ×10⁻⁶ cm/s	CCCCN1CC(=O)N[C@@H](CC(C)C)C(=O)N(C)[C@@H]([C@@H](C)CC)C(=O)N(C)[C@@H]([C@@H](C)O)C(=O)N(C)[C@@H](Cc2ccccc2)C(=O)N[C@@H]([C@@H](C)CC)C(=O)N(C)[C@@H](CC(C)C)C(=O)N[C@H](C(=O)N2CCCCC2)CC(=O)N(C)[C@@H](C)C(=O)N[C@@H](CC(C)C)C(=O)N(C)[C@@H](CC(C)C)C(=O)N(C)[C@@H](Cc2ccccc2)C(=O)N[C@@H](CC)C1=O [pd111] ([NMeA]L[NMeL][NMeF][Abu][NBuGly]L[NMeI][NMeT][NMeF]I[NMeL]D-Piperidide; lactam N-13)			
26.1 µL/min/mg	38.4 µL/min/mg Protein	0.12 10^-6 cm/sec	0.12 ×10⁻⁶ cm/s	CC[C@H](C)[C@@H]1NC(=O)[C@H](CC(C)C)N(C)C(=O)[C@H](CC(C)C)NC(=O)[C@H](C)N(C)C(=O)C[C@@H](C(=O)N2CCCCC2)N(C)C(=O)[C@H](C)N(C)C(=O)[C@H](CC(C)C)NC(=O)[C@H](C(C)C)N(C)C(=O)[C@H](CC(C)C)N(C)C(=O)CNC(=O)[C@H]([C@@H](C)CC)N(C)C(=O)[C@H](Cc2ccccc2)N(C)C(=O)[C@H](C)NC(=O)[C@H](Cc2ccccc2)N(C)C1=O [pd079] ([NMeA]L[NMeL]I[NMeF]A[NMeF][NMeI]G[NMeL][NMeV]L[NMeA][NMeD]-Piperidide; lactam N-14)			
19.2 µL/min/mg	14.9 µL/min/mg Protein	0.19 10^-6 cm/sec	0.19 ×10⁻⁶ cm/s	CC(C)C[C@@H]1NC(=O)[C@H]([C@@H](C)O)N(C)C(=O)[C@@H](C(C)C)NC(=O)C[C@@H](C(=O)N2CCCCC2)NC(=O)[C@H](C(C)C)N(C)C(=O)[C@H](C)N(C)C(=O)[C@H](Cc2ccccc2)N(C)C(=O)[C@@H]2CCCN2C(=O)[C@H](CC(C)C)N(C)C(=O)CN(C)C(=O)[C@H](CCc2ccccc2)NC(=O)[C@H](CC(C)C)N(C)C(=O)[C@H](C(C)C)N(C)C1=O [pd116] ([dV][NMeT]L[NMeV][NMeL][hPhe][Sar][NMeL]P[NMeF][NMeA][NMeV]D-Piperidide; lactam N-13)			
37.2 µL/min/mg	22.1 µL/min/mg Protein	0.03 10^-6 cm/sec	0.03 ×10⁻⁶ cm/s	CC[C@@H]1NC(=O)[C@H]([C@@H](C)O)N(C)C(=O)[C@H](CC(C)C)N(C)C(=O)[C@H]([C@@H](C)CC)NC(=O)[C@H](Cc2ccccc2)N(C)C(=O)CN(C)C(=O)C[C@@H](C(=O)N2CCCCC2)NC(=O)[C@H](C(C)C)N(C)C(=O)[C@H](CC)NC(=O)[C@H](COC(C)(C)C)NC(=O)[C@H](C)N(C)C(=O)[C@H](CC)NC(=O)[C@H](CC(C)C)N(C)C(=O)[C@H](CCc2ccccc2)NC1=O [pd028] ([Sar][NMeF]I[NMeL][NMeT][Abu][hPhe][NMeL][Abu][NMeA]S(tBu)[Abu][NMeV]D-Piperidide; lactam N-14)			
28.9 µL/min/mg	22.7 µL/min/mg Protein	0.11 10^-6 cm/sec	0.11 ×10⁻⁶ cm/s	CC[C@@H]1NC(=O)[C@H](Cc2ccccc2)N(C)C(=O)[C@H](CC(C)C)NC(=O)CNC(=O)[C@H]([C@@H](C)O)N(C)C(=O)[C@H](CC(C)C)N(C)C(=O)[C@H]([C@@H](C)CC)NC(=O)[C@H](Cc2ccccc2)N(C)C(=O)CN(C)C(=O)C[C@@H](C(=O)N2CCCCC2)NC(=O)[C@H](C(C)C)N(C)C(=O)[C@H](CC(C)C)NC(=O)[C@H](C)N(C)C1=O [pd105] ([Sar][NMeF]I[NMeL][NMeT]GL[NMeF][Abu][NMeA]L[NMeV]D-Piperidide; lactam N-13)			
40.3 µL/min/mg	32.3 µL/min/mg Protein	0.04 10^-6 cm/sec	0.04 ×10⁻⁶ cm/s	CC[C@@H]1NC(=O)[C@H](C(C)C)N(C)C(=O)[C@H](CC(C)C)NC(=O)[C@H](CC(C)C)N(C)C(=O)[C@H]([C@@H](C)O)NC(=O)CN(C)C(=O)[C@H]([C@@H](C)CC)NC(=O)[C@H](Cc2ccccc2)N(C)C(=O)[C@H](CC(C)C)N(C)C(=O)C[C@@H](C(=O)N2CCCCC2)NC(=O)[C@H](Cc2ccccc2)N(C)C(=O)[C@H](COC(C)(C)C)NC(=O)[C@@H]2CCCN2C(=O)[C@H]([C@@H](C)CC)NC1=O [pd031] ([NMeL][NMeF]I[Sar]T[NMeL]L[NMeV][Abu]IPS(tBu)[NMeF]D-Piperidide; lactam N-14)			
				CC[C@H](C)[C@H]1C(=O)N(C)[C@@H](CC(C)C)C(=O)N[C@@H](CCc2ccccc2)C(=O)N(C)[C@@H](CC(C)C)C(=O)N(C)CCC(=O)N(C)[C@@H](C(C)C)C(=O)N[C@@H](CC(C)C)C(=O)N(C)[C@@H](CC(C)C)C(=O)N[C@@H]([C@@H](C)O)C(=O)N(C)CCC(=O)N(C)[C@@H](Cc2ccccc2)C(=O)N[C@@H](C(C)C)C(=O)N(C)[C@H](C(=O)N2CCCCC2)CC(=O)N(C)CC(=O)N1C [pd096] ([Sar][NMeI][NMeL][hPhe][NMeL][NMeβAla][NMeV]L[NMeL]T[NMeβAla][NMeF]V[NMeD]-Piperidide; lactam N-14)	18.2 µL/min/mg Protein	0.51 10^-6 cm/sec	0.51 ×10⁻⁶ cm/s
14.6 µL/min/mg	10.0 µL/min/mg Protein	0.06 10^-6 cm/sec	0.06 ×10⁻⁶ cm/s	CC[C@H](C)[C@@H]1NC(=O)[C@@H]2CCCN2C(=O)[C@H](C(C)C)N(C)C(=O)[C@H](CC(C)C)N(C)C(=O)C[C@@H](C(=O)N2CCCCC2)N(C)C(=O)[C@H](CC(C)C)NC(=O)[C@H](CC(C)C)N(C)C(=O)[C@H](C)NC(=O)[C@@H]2CCCN2C(=O)[C@H]([C@@H](C)O)NC(=O)[C@H](CC(C)C)N(C)C(=O)CN(C)C(=O)[C@H](Cc2ccccc2)N(C)C1=O [pd164] ([NMeL][NMeV]PI[NMeF][Sar][NMeL]TPA[NMeL]L[NMeD]-Piperidide; lactam N-13)			

Compound	microsomal CLint at 1 µM [1, 3]	Mouse Hepatic Microsome CLh,int NADPH(-) [1, 4]	Caco2 Papp (10^-6 cm/sec) (Caco-2 cells; [5])	Papp A→B [2, 6]	Mouse Hepatic Microsome CLh,int NADPH(-) [1]	Caco2 Papp (10^-6 cm/sec) (Caco-2 cells; Caco-2)	Papp A→B [2]
CC[C@@H]1NC(=O)[C@H](C(C)C)N(C)C(=O)[C@H](CC(C)C)NC(=O)[C@H](Cc2ccccc2)N(C)C(=O)[C@@H](C(C)C)N(C)C(=O)C[C@@H](C(=O)N2CCCCC2)NC(=O)[C@H](CC(C)C)NC(=O)[C@H](C(C)C)N(C)C(=O)[C@H](Cc2ccccc2)N(C)C(=O)[C@H](CC(C)C)NC(=O)[C@H](CC(C)C)N(C)C(=O)[C@H](C)N(C)C(=O)[C@H]([C@@H](C)O)NC(=O)[C@H](CC(C)C)N(C)C1=O [pd033] ([dNMeV][NMeF]L[NMeV][Abu][NMeL]T[NMeA][NMeL]L[NMeF][NMeV]LD-Piperidide; lactam N-14)	47.8 µL/min/mg	34.1 µL/min/mg Protein	0.03 10^-6 cm/sec	0.03 ×10⁻⁶ cm/s			

From patent publication EP4768499A1, “MACROCYCLIC PEPTIDE COMPOUND HAVING CELL MEMBRANE PERMEABILITY AND METABOLIC STABILITY, AND LIBRARY CONTAINING SAME” (Chugai Seiyaku Kabushiki Kaisha, priority 2023, dated 2025)
